Like-named read-outs stand apart in the source and are kept apart here.
Experiment: Plasma PK of brensocatib, BID vs QD oral dosing, Sprague Dawley rats
Type: in vivo
Conditions: both sexes, rat; for AUC(0-t): first 24 h
Protocol: A dose frequency study was performed in male and female mice (C57BL/6 & BALB/c) and in male and female rats (Sprague Dawley & Wistar) investigating twice daily (BID) versus once daily (QD) brensocatib administration.
Briefly, animals were weighed and randomized into different treatment groups. In total, three different dosing levels of brensocatib were tested in each species and strain; each QD dosing level was equivalent to 1.5-times the matching daily BID dose. For BID dosing, the second daily dose was administered 8-h post the morning dose. C57BL/6 mice were dosed either BID or QD for 7 consecutive days at 0/0, 0.5/0.75, 2/3, and 20/30 mg/kg/day (BID/QD). BALB/c mice were dosed for 7 consecutive days at 0/0, 0.2/0.3, 2/3, and 20/30 mg/kg/day (BID/QD). SD rats were dosed for 9 consecutive days at 0/0, 0.2/0.3, 2/3, and 20/30 mg/kg/day (BID/QD). Wistar rats were dosed for 7 consecutive days at 0/0, 0.2/0.3, 2/3, and 20/30 mg/kg/day (BID/QD).
For sparse PK analysis via LC-MS/MS, plasma was collected from animals during the first 24 h of dosing at prescribed timepoints. The timepoints included 1, 3, 8, and 24 h post initial dose for QD groups, and 1, 3, 8, 9, 11, and 24 h post initial dose for BID groups. Note that the 8- and 24-h plasma samples were prior to the afternoon dose for BID groups and prior to the second day dose for all groups, respectively. See section Quantification of Plasma Brensocatib Concentrations for details.
Blood was collected via the tail-vein technique and centrifuged to separate and collect the plasma. The resulting plasma samples were stored at −20°C or lower until LC-MS/MS analysis.
The plasma concentration of brensocatib was quantified by liquid chromatography, tandem mass spectrometry (LC-MS/MS), a Sciex API6500 mass spectrometer (SCIEX, Framingham, MA). Two brensocatib stock solutions were prepared, one for the preparation of the 8-point standard (STD) curve spiking solutions and the other for the preparation of the quantitative control spiking solutions (QCs) at three levels. The STD curve and QCs were prepared by 2% spiking from the spiking solutions into mouse or rat plasma. The samples were extracted using a protein precipitation method, where 10 µL of sample was mixed with 100 µL of internal standard working solution (100 ng/mL ^6C13-brensocatib in methanol), vortexed for 5 s, and centrifuged at 21,130 × g at 4°C for 15 min. The supernatant was mixed with an equal volume of water and 10 μL was injected into a Phenomenex Kinetex Biphenyl column (3.0 mm × 50 mm; 2.6 μm; 65°C; 0.8 mL/min) with an elution gradient consisting of mobile phase A (10 mM ammonium formate) and mobile phase B (methanol) over 2 min from 5% to 95% B. The mass spectrometer was equipped with an atmospheric-pressure chemical ionization source operating in positive mode.
Individual plasma concentrations were plotted and the area under the curve (AUC) was calculated using the trapezoid method. The elimination rate constant (k e ) was calculated as the negative natural log of the plasma concentration over time (Eq. 1) starting at the max concentration (C max) after the most recent dose to the last measurable plasma concentration between doses. The calculated k e was used to define the half-life (t 1/2 ) based on Eq. 2; where 0.693 is the natural log of 2 and assumes a first-order reaction. ke=−ln∆C/∆t (1) t1/2=0.693/ke (2)

Work on `Cn1c(=O)oc2ccc(-c3ccc(C[C@@H](C#N)NC(=O)[C@@H]4CNCCCO4)cc3)cc21` [brensocatib] yielded a half-life (Sprague Dawley, Wistar, oral, rats (both strains), across BID and QD regimens, sparse PK, read-out: half-life (overall) (converted)) of roughly 480 min, an AUC(0-t) (Sprague-Dawley, SD rats, oral BID, 0.2 mg/kg/day, read-out: AUC0–24h) of 124 ± 81 ng·h/mL and an AUC(0-t) (Sprague-Dawley, SD rats, oral BID, 0.2 mg/kg/day, read-out: AUC(0–24)) of 0.29 ± 0.19 µM·h. It also gave an AUC(0-t) (Sprague-Dawley, SD rats, oral BID, 2 mg/kg/day, read-out: AUC0–24h) of 4730 ± 421 ng·h/mL, an AUC(0-t) (Sprague-Dawley, SD rats, oral BID, 2 mg/kg/day, read-out: AUC(0–24)) of 11.2 ± 1 µM·h and an AUC(0-t) (Sprague-Dawley, SD rats, oral BID, 20 mg/kg/day, read-out: AUC0–24h) of 72600 ng·h/mL. It also gave an AUC(0-t) (Sprague-Dawley, SD rats, oral BID, 20 mg/kg/day, read-out: AUC(0–24)) of 173 ± 8.09 µM·h, an AUC(0-t) (Sprague-Dawley, SD rats, oral QD, 0.3 mg/kg/day, read-out: AUC0–24h) of 269 ± 128 ng·h/mL and an AUC(0-t) (Sprague-Dawley, SD rats, oral QD, 0.3 mg/kg/day, read-out: AUC(0–24)) of 0.64 ± 0.3 µM·h. For the same compound, the AUC(0-t) (Sprague-Dawley, SD rats, oral QD, 3 mg/kg/day, read-out: AUC0–24h) was 11100 ng·h/mL, the AUC(0-t) (Sprague-Dawley, SD rats, oral QD, 3 mg/kg/day, read-out: AUC(0–24)) was 26.39 ± 0.25 µM·h and the AUC(0-t) (Sprague-Dawley, SD rats, oral QD, 30 mg/kg/day, read-out: AUC0–24h) was 104000 ng·h/mL. For the same compound, the AUC(0-t) (Sprague-Dawley, SD rats, oral QD, 30 mg/kg/day, read-out: AUC(0–24)) was 248 ± 59.5 µM·h, the half-life (Sprague-Dawley, po, 0.2 mg/kg/day, SD rats, oral BID, 0.2 mg/kg/day, evening dose, read-out: t1/2, PM dose (converted)) was 33 ± 1.2 min and the half-life (Sprague-Dawley, po, 0.3 mg/kg/day, SD rats, oral QD, 0.3 mg/kg/day, read-out: t1/2, AM dose (converted)) was 322 ± 143 min. The half-life (Sprague-Dawley, po, 2 mg/kg/day, SD rats, oral BID, 2 mg/kg/day, evening dose, read-out: t1/2, PM dose (converted)) was 445 ± 69.6 min, the half-life (Sprague-Dawley, po, 2 mg/kg/day, SD rats, oral BID, 2 mg/kg/day, morning dose, read-out: t1/2, AM dose (converted)) was 809 ± 550 min and the half-life (Sprague-Dawley, po, 3 mg/kg/day, SD rats, oral QD, 3 mg/kg/day, read-out: t1/2, AM dose (converted)) was 268 ± 22.2 min. For the same compound, the half-life (Sprague-Dawley, po, 20 mg/kg/day, SD rats, oral BID, 20 mg/kg/day, evening dose, read-out: t1/2, PM dose (converted)) was 242 ± 26.4 min, the half-life (Sprague-Dawley, po, 20 mg/kg/day, SD rats, oral BID, 20 mg/kg/day, morning dose, read-out: t1/2, AM dose (converted)) was 846 ± 93 min and the half-life (Sprague-Dawley, po, 30 mg/kg/day, SD rats, oral QD, 30 mg/kg/day, read-out: t1/2, AM dose (converted)) was 233 ± 2.4 min.
